In patent US20260226068A1, “IMIDAZOTRIAZINE IL-17A MODULATORS AND USES THEREOF” (DICE ALPHA, INC., priority 2023, published 2026) one finds IC50 data, which are given here for 26 molecules.

One experiment concerns the target T1, IL-17A/A (Homo sapiens, UniProt Q16552).
T1 construct: purchased Genscript Z03228
T1 sequence (Q16552 24-155): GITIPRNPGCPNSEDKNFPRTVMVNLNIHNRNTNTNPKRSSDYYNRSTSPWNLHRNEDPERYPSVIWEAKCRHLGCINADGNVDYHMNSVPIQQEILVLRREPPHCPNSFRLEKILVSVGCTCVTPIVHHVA
In words: IL-17A/A HEK-Blue cell assay (SEAP reporter). The class given is cell-based. Conditions: HEK-Blue IL-17A reporter cells, IL17A/A 5 ng/mL, 20 hours, SEAP read at A630; read-out: HEK-Blue IL17AA (IC50 for IL-17A/A inhibition).

In another experiment the target is T2, IL-17A/F (Homo sapiens, UniProt Q16552+Q96PD4).
T2 construct: purchased R&D Systems
T2 sequence (Q16552 24-155): T1 sequence (Q16552 24-155)
T2 sequence (Q96PD4 31-163): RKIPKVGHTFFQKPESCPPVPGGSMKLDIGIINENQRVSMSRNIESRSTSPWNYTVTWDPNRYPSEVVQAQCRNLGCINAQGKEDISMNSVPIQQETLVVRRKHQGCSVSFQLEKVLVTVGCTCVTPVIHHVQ
In words: IL-17A/F HEK-Blue cell assay (SEAP reporter). The class given is cell-based. Conditions: HEK-Blue IL-17A reporter cells, IL17A/F 5 ng/mL, 20 hours, SEAP read at A630; read-out: HEK-Blue IL17AF (IC50 for IL-17A/F inhibition).

On to `CCn1nccc1C(=O)N[C@H](c1cn2nc(C[C@H]3C[C@@H](C(F)(F)F)CNC3=O)c(C3CCOC3)nc2n1)C1CCC(F)(F)CC1` (single isomer, unassigned) [Compound 62], for which the IC50 is below 0.1 µM at IL-17A/A and 0.1 to 1 µM on IL-17A/F.

Consider `CCn1nccc1C(=O)N[C@H](c1cn2nc(C[C@H]3C[C@@H](C(F)(F)F)CNC3=O)c([C@H]3CCOC3)nc2n1)C(C1CC1)C1CC1` (single isomer, unassigned) [Compound 321], for which the results for the IC50 on IL-17A/A and on IL-17A/F were below 0.1 µM and 0.1 to 1 µM, respectively.

Take `O=C(N[C@H](c1cn2nc(CC3C[C@@H](C(F)(F)F)CNC3=O)c(N3CCOCC3)nc2n1)C1CCC(F)(F)CC1)c1conc1C1CC1(F)F` (single isomer, unassigned) [Compound 113]: the IC50 on IL-17A/A was below 0.1 µM; at IL-17A/F it was 0.1 to 1 µM.

On to `CCn1nccc1C(=O)N[C@H](c1cn2nc(CC3C[C@@H](C(F)(F)F)CNC3=O)c(N3CCOCC3)nc2n1)[C@H]1CC[C@H](C)CC1` (stereo partly shown) [Compound 58], for which the IC50 on IL-17A/A was below 0.1 µM; at IL-17A/F, 0.1 to 1 µM.

In the case of `C[C@@H]1CN(c2nc3nc([C@@H](NC(=O)c4ccnn4C)[C@@H]4CCCC(F)(F)C4)cn3nc2C[C@H]2C[C@@H](C(F)(F)F)CNC2=O)CCO1` [Compound 307, N—((S)—((R)-3,3-difluorocyclohexyl)(3-((R)-2-methylmorpholino)-2-(((3R,5R)-2-oxo-5-(trifluoromethyl)piperidin-3-yl)methyl)imidazo[1,2-b][1,2,4]triazin-6-yl)methyl)-1-methyl-1H-pyrazole-5-carboxamide], the IC50 on IL-17A/A and on IL-17A/F was below 0.1 µM throughout.

On to `Cc1nonc1C(=O)N[C@H](c1cn2nc(C[C@H]3C[C@@H](C(F)(F)F)CNC3=O)c(C3CCOCC3)nc2n1)[C@H]1C[C@H]2C[C@H]2C1` [Compound 316, N—((S)-((1R,3r,5S)-bicyclo[3.1.0]hexan-3-yl)(2-(((3R,5R)-2-oxo-5-(trifluoromethyl)piperidin-3-yl)methyl)-3-(tetrahydro-2H-pyran-4-yl)imidazo[1,2-b][1,2,4]triazin-6-yl)methyl)-4-methyl-1,2,5-oxadiazole-3-carboxamide], for which the results for the IC50 at IL-17A/A and on IL-17A/F were 0.1 to 1 µM and above 1 µM, respectively.

Consider `CCn1nccc1C(=O)N[C@H](c1cn2nc(C[C@H]3C[C@@H](C(F)(F)F)CNC3=O)c([C@H](C)N3CCOCC3)nc2n1)C1CCC(F)(F)CC1` (single isomer, unassigned) [Compound 381], for which the IC50 on IL-17A/A is 0.1 to 1 µM; on IL-17A/F it was above 1 µM.

With `CCn1nccc1C(=O)N[C@H](c1cn2nc(CC3C[C@H](C(F)(F)F)CNC3=O)c(N(C)C)nc2n1)C1CCC(F)(F)CC1` (single isomer, unassigned) [Compound 55], the IC50 at IL-17A/A was below 0.1 µM; at IL-17A/F, 0.1 to 1 µM.

With `Cc1nonc1C(=O)N[C@H](c1cn2nc(C[C@H]3C[C@@H](C(F)(F)F)CNC3=O)c(N3CCN(C)CC3)nc2n1)C1CCC(F)(F)CC1` [Compound 311, N—((S)-(4,4-difluorocyclohexyl)(3-(4-methylpiperazin-1-yl)-2-(((3R,5R)-2-oxo-5-(trifluoromethyl)piperidin-3-yl)methyl)imidazo[1,2-b][1,2,4]triazin-6-yl)methyl)-4-methyl-1,2,5-oxadiazole-3-carboxamide], the IC50 on IL-17A/A is below 0.1 µM; at IL-17A/F, above 1 µM.

For `Cc1nonc1C(=O)N[C@H](c1cn2nc(C[C@H]3C[C@@H](C(F)(F)F)CNC3=O)c([C@@H]3CCOC3)nc2n1)C1CCC(F)(F)CC1` (single isomer, unassigned) [Compound 275], the figures for the IC50 on IL-17A/A and at IL-17A/F were below 0.1 µM and above 1 µM, respectively.

Take `CCn1nccc1C(=O)N[C@H](c1cn2nc(CC3C[C@@H](C(F)(F)F)CNC3=O)c(N3C[C@H]4C[C@@H]3CO4)nc2n1)[C@H]1CC[C@H](C)CC1` (single isomer, unassigned) [Compound 107]: the results for the IC50 at IL-17A/A and on IL-17A/F were below 0.1 µM and 0.1 to 1 µM, respectively.

In the case of `O=C(N[C@H](c1cn2nc(CC3C[C@@H](C(F)(F)F)CNC3=O)c(N3CCOCC3)nc2n1)C1CCC(F)(F)CC1)c1conc1C1CC1(F)F` (single isomer, unassigned) [Compound 116], the IC50 at IL-17A/A is below 0.1 µM; at IL-17A/F, above 1 µM.

Regarding `CCn1nccc1C(=O)N[C@H](c1cn2nc(C[C@H]3C[C@@H](C(F)(F)F)CNC3=O)c(N3CCO[C@@H](C)C3)nc2n1)C1CCC(F)(F)CC1` [Compound 283, N—((S)-(4,4-difluorocyclohexyl)(3-((S)-2-methylmorpholino)-2-(((3R,5R)-2-oxo-5-(trifluoromethyl)piperidin-3-yl)methyl)imidazo[1,2-b][1,2,4]triazin-6-yl)methyl)-1-ethyl-1H-pyrazole-5-carboxamide], the results for the IC50 on IL-17A/A and at IL-17A/F were below 0.1 µM and 0.1 to 1 µM, respectively.

In the case of `Cn1nccc1C(=O)N[C@H](c1cn2nc(C[C@H]3C[C@@H](C(F)(F)F)CNC3=O)c(C3CCOCC3)nc2n1)[C@@H]1CCCC(F)(F)C1` [Compound 277, N—((S)—((R)-3,3-difluorocyclohexyl)(2-(((3R,5R)-2-oxo-5-(trifluoromethyl)piperidin-3-yl)methyl)-3-(tetrahydro-2H-pyran-4-yl)imidazo[1,2-b][1,2,4]triazin-6-yl)methyl)-1-methyl-1H-pyrazole-5-carboxamide], the IC50 was below 0.1 µM at IL-17A/A and 0.1 to 1 µM on IL-17A/F.

With `CCn1ncnc1C(=O)N[C@H](c1cn2nc(C[C@H]3C[C@H](C)CNC3=O)c(C3CCOCC3)nc2n1)C1CCC(F)(F)CC1` [Compound 387], the IC50 at IL-17A/A was 0.1 to 1 µM; at IL-17A/F it was above 1 µM.

For the molecule `CCn1nccc1C(=O)N[C@H](c1cn2nc(C[C@H]3C[C@@H](C(F)(F)F)CNC3=O)c(C34CCCC(C3)OC4)nc2n1)C1CCC(F)(F)CC1` (stereo partly drawn) [Compound 254, N-((1S)-(3-(6-oxabicyclo[3.2.1]octan-1-yl)-2-(((3R,5R)-2-oxo-5-(trifluoromethyl)piperidin-3-yl)methyl)imidazo[1,2-b][1,2,4]triazin-6-yl)(4,4-difluorocyclohexyl)methyl)-1-ethyl-1H-pyrazole-5-carboxamide], the figures for the IC50 at IL-17A/A and on IL-17A/F were below 0.1 µM and 0.1 to 1 µM, respectively.

Consider `CCn1nccc1C(=O)N[C@H](c1cn2nc(C[C@H]3C[C@@H](C(F)(F)F)CNC3=O)cnc2n1)[C@@H]1CCCC(F)(F)C1` (single isomer, unassigned) [Compound 31], for which the IC50 at IL-17A/A is 0.1 to 1 µM; at IL-17A/F, above 1 µM.

Consider `CCn1nccc1C(=O)N[C@H](c1cn2nc(CC3C[C@@H](C(F)(F)F)CNC3=O)c(N3CC4CC(C3)O4)nc2n1)[C@H]1CC[C@H](C)CC1` (single isomer, unassigned) [Compound 103], for which the values for the IC50 at IL-17A/A and on IL-17A/F were below 0.1 µM and 0.1 to 1 µM, respectively.

Take `CCn1nccc1C(=O)N[C@H](c1cn2nc(C[C@H]3C[C@@H](C(F)(F)F)CNC3=O)c(N3CCO[C@H](C)C3)nc2n1)C1CCC(F)(F)CC1` [Compound 282, N—((S)-(4,4-difluorocyclohexyl)(3-((R)-2-methylmorpholino)-2-(((3R,5R)-2-oxo-5-(trifluoromethyl)piperidin-3-yl)methyl)imidazo[1,2-b][1,2,4]triazin-6-yl)methyl)-1-ethyl-1H-pyrazole-5-carboxamide]: the IC50 at IL-17A/A and at IL-17A/F was below 0.1 µM each time.

Consider `Cc1nonc1C(=O)N[C@H](c1cn2nc(C[C@@H]3C[C@@H](C)CNC3=O)c(C3CCOCC3)nc2n1)C1CCC(F)(F)CC1` [Compound 397], for which the results for the IC50 at IL-17A/A and on IL-17A/F were below 0.1 µM and above 1 µM, respectively.

For `CCn1nccc1C(=O)N[C@H](c1cn2nc(C[C@H]3C[C@@H](C(F)(F)F)CNC3=O)c(C3CCCC(F)(F)C3)nc2n1)C1CCC(F)(F)CC1` (single isomer, unassigned) [Compound 271], the IC50 on IL-17A/A is below 0.1 µM; at IL-17A/F it was 0.1 to 1 µM.

For `O=C(N[C@H](c1cn2nc(C[C@H]3C[C@@H](C(F)(F)F)CNC3=O)c(C3CCOCC3)nc2n1)C1CCC(F)(F)CC1)c1ccn[nH]1` [Compound 154, N-((1S)-(4,4-difluorocyclohexyl)(2-(((3R,5R)-2-oxo-5-(trifluoromethyl)piperidin-3-yl)methyl)-3-(tetrahydro-2H-pyran-4-yl)imidazo[1,2-b][1,2,4]triazin-6-yl)methyl)-1H-pyrazole-5-carboxamide], the results for the IC50 at IL-17A/A and at IL-17A/F were below 0.1 µM and above 1 µM, respectively.

For the molecule `CCn1nccc1C(=O)N[C@H](c1cn2nc(C[C@@H]3C[C@@H](C(F)(F)F)CNC3=O)cnc2n1)C1CCC(F)(F)CC1` [Compound 28], the results for the IC50 at IL-17A/A and at IL-17A/F were 0.1 to 1 µM and above 1 µM, respectively.

For `CCn1nccc1C(=O)N[C@H](c1cn2nc(C[C@H]3C[C@@H](C)CNC3=O)c(C3CCOCC3)nc2n1)C1CCC(F)(F)CC1` [Compound 303], the IC50 at IL-17A/A is below 0.1 µM; at IL-17A/F, above 1 µM.

With `CCn1nccc1C(=O)N[C@H](c1cn2nc(C[C@H]3C[C@@H](C(F)(F)F)CNC3=O)c(CN3CCOCC3C)nc2n1)C1CCC(F)(F)CC1` (single isomer, unassigned) [Compound 232], the IC50 is below 0.1 µM on IL-17A/A and 0.1 to 1 µM on IL-17A/F.

As to `CCn1nccc1C(=O)N[C@H](c1cn2nc(C[C@H]3C[C@@H](C(F)(F)F)CNC3=O)c(C3COC4(C3)CN(C)C4)nc2n1)C1CCC(F)(F)CC1` (stereo partly drawn) [Compound 355, N-((1S)-(4,4-difluorocyclohexyl)(3-(2-methyl-5-oxa-2-azaspiro[3.4]octan-7-yl)-2-(((3R,5R)-2-oxo-5-(trifluoromethyl)piperidin-3-yl)methyl)imidazo[1,2-b][1,2,4]triazin-6-yl)methyl)-1-ethyl-1H-pyrazole-5-carboxamide], the figures for the IC50 on IL-17A/A and on IL-17A/F were 0.1 to 1 µM and above 1 µM, respectively.
